This experiment deals with spleen cell subtypes (T cells, macrophages, dendritic cells, rest of the lymphocytes). The experiment can be described thus: Immunophenotyping the spleen cell subtypes post-transfection of mRNA with NF55 in vivo. Also on record: species or system mice. Particulars: in words; luciferase mRNA 30 μg, CR2, i.v., 16 h post-injection. As for the experimental part: FIG. 6: Reporter levels detected from spleen cells subtypes collected from NF55/mRNA treated mice. Reporter protein levels were evaluated from the sorted splenocytes: T cells, Macrophages, Dendritic cells and the rest of the lymphocytes. Results are shown as the fold change compared to untreated mice.
To analyse the cell subtypes that were transfected with the CPP, 30 μg of luciferase-encoding mRNA was complexed with the CPP at CR2 in water and injected i.v. 16 h post-injection, the spleens were collected into ice-cold dissociation buffer (1×PBS without Ca^2+ and Mg^2+ supplemented with 2 mM EDTA). Following gentle mechanical dissociation by grinding, splenic cells were strained with 100 μm cell strainer and centrifuged for 5 min at +4 °C, 300×g. A 2-minute incubation with 1 ml of RBC lysis buffer ACK (Thermo) was used for the red blood cell lysis. Flow cytometry buffer (dissociation buffer supplemented with 0.5% (w/v) BSA) was added, cells were centrifuged for 5 min at +4 °C, 300×g and counted. […]
In order to determine to which types of spleen cells mRNA were transfected in vivo, cells collected from the spleens of transfected animals were sorted according to their subtype and the reporter expression measured. mRNA encoding luciferase (mRNA (luc)) was used as a reporter model.

As to `CCCCCCCCCCCCCCCCCC(=O)N[C@@H](C)C(=O)NCC(=O)N[C@@H](Cc1ccc(O)cc1)C(=O)N[C@@H](CC(C)C)C(=O)N[C@@H](CC(C)C)C(=O)NCC(=O)NCCC[C@H](N)C(=O)N[C@H](C(=O)N[C@@H](CC(N)=O)C(=O)N[C@@H](CC(C)C)C(=O)N[C@@H](CCCCN)C(=O)N[C@@H](C)C(=O)N[C@@H](CC(C)C)C(=O)N[C@@H](C)C(=O)N[C@@H](C)C(=O)N[C@@H](CC(C)C)C(=O)N[C@@H](C)C(=O)N[C@@H](CCCCN)C(=O)N[C@@H](C)C(=O)N[C@H](C(=O)N[C@@H](CC(C)C)C(N)=O)[C@@H](C)CC)[C@@H](C)CC` [NF55], the “Reporter signal in spleen cell subtypes” value is given as “the majority of the reporter signal arose from the dendritic cells (DCs)”.

(Values after patent US20260355330A1, “CELL PENETRATING PEPTIDES AND USES THEREOF” (VECTIOPEP OÜ, priority 2022, published 2026).)
